The target of series [1] is T1, Poly [ADP-ribose] polymerase 1 (Homo sapiens, UniProt P09874). The series is described as follows: Inhibition of PARP1 (unknown origin) using biotinylated NAD+ as substrate by luminescence assay.
The target of series [2] is T2, Poly [ADP-ribose] polymerase 2 (Homo sapiens, UniProt Q9UGN5). The series is described as follows: Inhibition of PARP2 (unknown origin) using biotinylated NAD+ as substrate by luminescence assay.
For series [3], the target named is T1, Poly [ADP-ribose] polymerase 1. As to the kind of experiment: Inhibition of PARP1 (unknown origin) at 10 uM relative to control.
Series [4] concerns the target T2, Poly [ADP-ribose] polymerase 2. As to the kind of experiment: Inhibition of PARP2 (unknown origin) at 10 uM relative to control.
Series [5] relates to MDA-MB-436. As to the kind of experiment: Cytotoxicity against human MDA-MB-436 cells assessed as reduction in cell viability incubated for 24 hrs by MTS assay. The format is functional, cell-based. Conditions: MDA-MB-436, 24 h.
Series [6] has as its system MDA-MB-231. As to the kind of experiment: Cytotoxicity against human MDA-MB-231 cells assessed as reduction in cell viability incubated for 24 hrs by MTS assay. In kind it is functional, cell-based. Conditions: MDA-MB-231, 24 h.
The test system of series [7] is MCF7. The series is described as follows: Cytotoxicity against human MCF7 cells assessed as reduction in cell viability incubated for 24 hrs by MTS assay. To be noted: MCF7, 24 h. The format is functional, cell-based.
A short description of series [8]: Microsomal stability in human liver microsomes assessed as half life measured for 48 hrs by LC-MS/MS analysis. In kind it is ADME, Microsome.
Series [9] is described as follows: Microsomal stability in rat liver microsomes assessed as half life measured for 48 hrs by LC-MS/MS analysis. The format is ADME, Microsome.
Series [10] addresses T1, Poly [ADP-ribose] polymerase 1. As to the kind of experiment: Inhibition of PARP1 (unknown origin).
In series [11] the target is T2, Poly [ADP-ribose] polymerase 2. The series is described as follows: Inhibition of PARP2 (unknown origin).
Series [12] concerns MDA-MB-436. As to the kind of experiment: Antiproliferative activity against human MDA-MB-436 cells assessed as reduction in cell viability. In kind it is functional, cell-based.
For series [13], the system named is MDA-MB-436. As to the kind of experiment: Cytotoxicity against human MDA-MB-436 cells. The format is functional, cell-based.
Series [14] relates to MCF7. As to the kind of experiment: Anticancer activity against human MCF7 cells assessed as reduction in cell viability. The format is functional, cell-based.
The next series concerns Caco-2. The series is described as follows: Cytotoxicity against human Caco-2 cells assessed as inhibition of cell growth incubated for 72 hrs by CCK-8 assay. The format is functional, cell-based. Conditions: Caco-2, 72 h.
A short description of series [15]: Cytotoxicity against African green monkey Vero cells. The format is toxicity, cell-based, Chlorocebus sabaeus.
Series [16] concerns MCF7. As to the kind of experiment: Cytotoxicity against human MCF7 cells assessed as reduction in cell growth incubated for 72 hrs by alamar blue reagent based analysis. In kind it is functional. To be noted: MCF7, 72 h.
In series [17] the test system is MDA-MB-231. The series is described as follows: Cytotoxicity against human MDA-MB-231 cells assessed as reduction in cell growth incubated for 72 hrs by alamar blue reagent based analysis. The format is functional. To be noted: MDA-MB-231, 72 h.
For series [18], the system named is MDA-MB-436. As to the kind of experiment: Antiproliferative activity against human MDA-MB-436 cells. The format is functional, cell-based.
A further series concerns HepG2. The series is described as follows: Antiproliferative activity against human HepG2 cells assessed as reduction in cell growth incubated for 24 hrs by MTT assay. Conditions: HepG2, 24 h. The format is functional, cell-based.
The next series deals with A549. As to the kind of experiment: Antiproliferative activity against human A549 cells assessed as reduction in cell growth incubated for 24 hrs by MTT assay. To be noted: A549, 24 h. In kind it is functional, cell-based.
Series [19] concerns MCF7. The series is described as follows: Antiproliferative activity against human MCF7 cells assessed as reduction in cell growth incubated for 24 hrs by MTT assay. In kind it is functional, cell-based. Conditions: MCF7, 24 h.
The subject of the next series is HCT-116. The series is described as follows: Antiproliferative activity against human HCT-116 cells assessed as reduction in cell growth incubated for 24 hrs by MTT assay. The format is functional, cell-based. Conditions: HCT-116, 24 h.
Series [20] is described as follows: Antiproliferative activity against human MCF10A cells assessed as inhibition of cell growth incubated for 72 hrs by alamar blue assay. The format is functional, cell-based. Conditions: MCF10AT1, 72 h.
Series [21] has as its target T1, Poly [ADP-ribose] polymerase 1. The series is described as follows: Inhibition of human recombinant PARP1 at 0.01 uM relative to control.
Series [22] has the same target. As to the kind of experiment: Inhibition of human recombinant PARP1 at 0.1 uM relative to control.
The target is the same in series [23]. The series is described as follows: Inhibition of human recombinant PARP1 at 1 uM relative to control.
Series [24] shares this target. As to the kind of experiment: Inhibition of human recombinant PARP1 at 10 uM relative to control.
Series [25] shares this target. As to the kind of experiment: Inhibition of human recombinant PARP1 at 100 uM relative to control.
Series [26] shares this target. The series is described as follows: Inhibition of human recombinant PARP1 expressed in Escherichia coli BL21(DE3).
In another series the test system is CAPAN-1. As to the kind of experiment: Antiproliferative activity against human CAPAN-1 cells assessed as reduction in cell growth. In kind it is functional, cell-based.
The test system of series [27] is MCF7. The series is described as follows: Antiproliferative activity against human MCF7 cells assessed as cell growth inhibition. The format is functional, cell-based.
Another series has as its system MX1. The series is described as follows: Antiproliferative activity against human MX1 cells assessed as cell growth inhibition. In kind it is functional, cell-based.
In the next series the test system is MDA-MB-157. As to the kind of experiment: Anticancer activity against human MDA-MB-157 cells assessed as cell growth inhibition. The format is functional, cell-based.
Another series relates to HCC1395. The series is described as follows: Anticancer activity against human HCC1395 cells assessed as cell growth inhibition. In kind it is functional, cell-based.

This is an account of results in ChEMBL document CHEMBL5550171, “Poly (ADP-ribose) polymerase (PARP) inhibitors as anticancer agents: An outlook on clinical progress, synthetic strategies, biological activity, and structure-activity relationship” (Eur J Med Chem, 2024).

T1 sequence (P09874 whole entry): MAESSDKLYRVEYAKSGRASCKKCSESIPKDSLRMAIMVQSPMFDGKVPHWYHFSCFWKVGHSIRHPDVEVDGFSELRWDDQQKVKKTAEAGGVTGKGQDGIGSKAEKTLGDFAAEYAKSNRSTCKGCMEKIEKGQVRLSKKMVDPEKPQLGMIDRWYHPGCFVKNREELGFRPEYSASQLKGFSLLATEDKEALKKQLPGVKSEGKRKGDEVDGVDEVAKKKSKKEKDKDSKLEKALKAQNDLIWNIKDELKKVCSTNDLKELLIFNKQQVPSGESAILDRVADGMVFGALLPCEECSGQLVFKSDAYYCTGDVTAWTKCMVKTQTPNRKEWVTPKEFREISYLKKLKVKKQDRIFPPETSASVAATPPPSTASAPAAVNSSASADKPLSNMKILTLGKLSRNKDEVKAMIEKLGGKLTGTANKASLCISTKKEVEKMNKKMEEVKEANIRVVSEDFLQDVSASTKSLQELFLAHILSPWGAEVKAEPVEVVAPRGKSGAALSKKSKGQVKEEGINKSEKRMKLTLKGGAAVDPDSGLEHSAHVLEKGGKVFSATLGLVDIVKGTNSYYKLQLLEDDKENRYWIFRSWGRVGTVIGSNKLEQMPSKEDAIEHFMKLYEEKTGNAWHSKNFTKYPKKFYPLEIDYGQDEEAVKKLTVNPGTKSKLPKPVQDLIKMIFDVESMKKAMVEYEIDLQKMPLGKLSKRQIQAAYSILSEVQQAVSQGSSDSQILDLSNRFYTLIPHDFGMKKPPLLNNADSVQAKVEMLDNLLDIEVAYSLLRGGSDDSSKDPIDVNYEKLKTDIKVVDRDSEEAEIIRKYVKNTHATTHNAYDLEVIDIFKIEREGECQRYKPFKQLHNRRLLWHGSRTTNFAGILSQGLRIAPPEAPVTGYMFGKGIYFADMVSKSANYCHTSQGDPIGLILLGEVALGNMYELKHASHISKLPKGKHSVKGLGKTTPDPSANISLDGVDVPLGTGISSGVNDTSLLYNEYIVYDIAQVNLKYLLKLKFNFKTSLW
T2 sequence (Q9UGN5 whole entry): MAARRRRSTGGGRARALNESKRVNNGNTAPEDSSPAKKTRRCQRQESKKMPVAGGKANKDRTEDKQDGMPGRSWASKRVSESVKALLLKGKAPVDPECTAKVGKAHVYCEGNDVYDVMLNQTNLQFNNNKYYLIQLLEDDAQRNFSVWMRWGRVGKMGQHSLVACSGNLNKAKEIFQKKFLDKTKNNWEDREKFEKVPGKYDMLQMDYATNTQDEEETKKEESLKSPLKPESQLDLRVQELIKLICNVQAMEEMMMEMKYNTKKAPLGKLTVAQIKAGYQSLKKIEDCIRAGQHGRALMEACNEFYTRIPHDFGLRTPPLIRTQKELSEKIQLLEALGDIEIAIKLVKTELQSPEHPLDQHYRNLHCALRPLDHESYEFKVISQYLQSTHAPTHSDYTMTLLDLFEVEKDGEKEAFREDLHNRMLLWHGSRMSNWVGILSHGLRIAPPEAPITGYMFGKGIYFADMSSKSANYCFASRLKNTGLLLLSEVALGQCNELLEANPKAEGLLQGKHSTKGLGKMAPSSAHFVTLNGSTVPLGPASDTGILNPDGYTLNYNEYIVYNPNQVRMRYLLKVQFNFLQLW

Regarding `NC(=O)c1cccc2[nH]c(C3CCN(C4CCC(F)(F)CC4)CC3)nc12`, the IC50 in [1] worked out at 0.0043 µM; in series [2], 0.00158 µM; with MDA-MB-436 [5], 28.3 µM; in the series on MDA-MB-231 [6] it was 96.8 µM; with MCF7 [7] it was 60.8 µM. For the same compound, the inhibition in series [3] was found to be 47.9%; in [4], 90.8%. In addition, the half-life in [8] was 4.38 h; in [9], above 16.7 h.

Take `O=C1N[C@H](C2CC2)[C@@H](C(=O)N2CCC(N3CCCCC3)CC2)c2ccc(F)cc21`: the IC50 in series [10] stood at 22 µM; in series [11] it was 4.3 µM.

For `Cc1ccoc1C(=O)N1CCCN(C(=O)c2ccc(-c3nc4c(C(N)=O)cccc4[nH]3)cc2)CC1`, the IC50 with MDA-MB-436 [12] came out at 25.4 µM.

In the series on MDA-MB-436 [13], `COc1ccc(/C=C2\CC3(CC4C2=NN(C(N)=S)C4c2ccc(OC)cc2)OCCO3)cc1` (configuration not stated) came in with an IC50 of 0.67 µM.

In the case of `CCOC(=O)CO/N=C(\N)c1ccc(C)cc1`, the IC50 worked out at 0.32 µM in the series on MCF7 [14], 0.4 µM in the series on Caco-2 and 0.48 µM in series [15].

For `O=C(c1cc(Cc2n[nH]c(=O)c3ccccc23)ccc1F)N1CCN(C(=O)C2CC2)CC1` [OLAPARIB], the IC50 with MCF7 [16] amounted to 3.2 µM; in the series with MDA-MB-231 [17] it was 70.2 µM; with MDA-MB-436 [18] it was 8.9 µM.

With `O=C1CCc2cc(-c3ccccc3F)ccc2C2(CCCCC2)N1`, the IC50 in series [11] turned out to be 0.0305 µM; in the series on HepG2, 2.01 µM; in the series on A549 it was 3.67 µM; in the series with MCF7 [19] it was 4.25 µM; with HCT-116, 3.94 µM.

For `COc1ccc(Cc2nnc(-c3cccc(-c4cccc(C=O)c4)c3)o2)cc1`, the values for the IC50 in the series with MCF7 [16] and in the series with MDA-MB-231 [17] were 1.4 µM and 29.3 µM, respectively.

With `COc1ccc(CSc2nccc(OCC(=O)N3CCN(c4ccc(C)cc4)CC3)n2)cc1`, in series [20], the IC50 came out at 46.9 µM. The inhibition in series [21] was found to be 0.5%; in series [22], 15.6%; in [23], 29.8%; in series [24], 70.3%; in series [25] it was 85.8%.

For the compound `Cc1ccoc1C(=O)N1CCN(C(=O)c2ccc(-c3nc4c(C(N)=O)cccc4[nH]3)cc2)C(C)C1` (configuration not stated), in series [26], the IC50 stood at 0.0163 µM.

With `O=C(NCCc1ccc(F)cc1)c1cc(Cc2n[nH]c(=O)c3ccccc23)ccc1F`, the figures for the IC50 (in series [10]; in the series on CAPAN-1) were 0.00324 µM and 7.5 µM, respectively.

For `O=C1NCC(c2ccc(-c3ccc(C(F)(F)F)cc3)cc2)Nc2ccccc21` (configuration not stated), the IC50 in the series with MCF7 [27] worked out at 37.9 µM; in the series with MX1, 24.6 µM.

Regarding `Cn1ncnc1[C@H]1c2n[nH]c(=O)c3cc(F)cc(c23)N[C@@H]1c1ccc(F)cc1` [TALAZOPARIB], the IC50 was found to be 0.00037 µM in the series on MDA-MB-157 and 0.00046 µM with HCC1395.

Regarding `CCOC(=O)CO/N=C(\N)c1ccccc1`, the IC50 is 0.8 µM in the series on MCF7 [14], 0.43 µM in the series with Caco-2 and 6.76 µM in series [15].
